Assay results as given in patent publication US20020019412A1, “MODULATORS OF PROTEIN TYROSINE PHOSPHATASES (PTPASES)” (priority 1998, published 2002).
Where a name gives a salt, the structure may show the parent alone.

Experiments:
PTP1B = biological target: T1, PTP1B (Homo sapiens, UniProt P18031); assay: Inhibition of truncated PTP1B, p-nitrophenyl phosphate substrate; assay type: biochemical; details: truncated PTP1B (first 321 amino acids) expressed in E. coli; pNPP substrate; pH 5.5; 25° C., 60 minutes
T1 construct: a truncated form of PTP1B (corresponding to the first 321 amino acids); made in house; host or cells: E. coli
T1 sequence (P18031 1-321): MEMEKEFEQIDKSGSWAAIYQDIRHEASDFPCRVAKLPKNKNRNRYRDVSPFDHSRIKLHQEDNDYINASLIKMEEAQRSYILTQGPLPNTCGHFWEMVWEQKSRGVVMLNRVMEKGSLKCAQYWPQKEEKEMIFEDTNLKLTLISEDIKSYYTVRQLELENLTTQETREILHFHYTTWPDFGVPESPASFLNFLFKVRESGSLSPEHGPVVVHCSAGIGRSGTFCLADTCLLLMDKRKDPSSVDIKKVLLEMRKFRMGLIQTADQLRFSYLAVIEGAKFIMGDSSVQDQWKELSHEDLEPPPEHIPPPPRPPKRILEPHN
Protocol: The compounds are evaluated for biological activity with a truncated form of PTP1B (corresponding to the first 321 amino acids), which is expressed in E. coli and purified to apparent homogeneity using published procedures well-known to those skilled in the art. The enzyme reactions are carried out using standard conditions essentially as described by Burke et al. (Biochemistry 35; 15989-15996 (1996)). The assay conditions are as follows. Appropriate concentrations of the compounds of the invention are added to the reaction mixtures containing different concentrations of the substrate, p-nitrophenyl phosphate (range: 0.16 to 10 mM—final assay concentration). The buffer used is 100 mM sodium acetate pH 5.5, 50 mM sodium chloride, 0.1% (w/v) bovine serum albumin and 5 mM dithiothreitol (total volume […]). The reaction is started by addition of the enzyme and carried out in microtiter plates at 25° C. for 60 minutes. The reactions are stopped by addition of NaOH. The enzyme activity is determined by measurement of the absorbance at 405 nm with appropriate corrections for absorbance at 405 nm of the compounds and p-nitrophenyl phosphate. The data are analyzed using nonlinear regression fit to classical Michaelis Menten enzyme kinetic models. Inhibition is expressed as Ki values in μM.

| Ki (PTP1B) [µM] | melting point [°C] | Compound |
| --- | --- | --- |
| 330 | – | O=C(O)C(=O)Nc1c(C(=O)O)sc2ncccc12 [Example 1, 3-(Oxalyl-amino)-thieno[2,3-b]pyridine-2-carboxylic acid, mono sodium salt] |
| – | > 250 | O=C(O)C(=O)Nc1c(C(=O)O)sc2ncccc12 (as salt: sodium) [Example 1, 3-(Oxalyl-amino)-thieno[2,3-b]pyridine-2-carboxylic acid, mono sodium salt] |
